Laboratory results published in ChEMBL document CHEMBL5653631, “A Potent and Selective ULK1 Inhibitor Suppresses Autophagy and Sensitizes Cancer Cells to Nutrient Stress” (iScience, 2018).
Each block holds one compound with its values, some of them ahead of it.

Legend:
[1] = target: T1, Serine/threonine-protein kinase TAO2 (Homo sapiens) (UniProt Q9UL54); test: Inhibition of human recombinant TAO2 at 500 nM in presence of ATP by radiometric assay relative to control
T1 sequence (whole entry): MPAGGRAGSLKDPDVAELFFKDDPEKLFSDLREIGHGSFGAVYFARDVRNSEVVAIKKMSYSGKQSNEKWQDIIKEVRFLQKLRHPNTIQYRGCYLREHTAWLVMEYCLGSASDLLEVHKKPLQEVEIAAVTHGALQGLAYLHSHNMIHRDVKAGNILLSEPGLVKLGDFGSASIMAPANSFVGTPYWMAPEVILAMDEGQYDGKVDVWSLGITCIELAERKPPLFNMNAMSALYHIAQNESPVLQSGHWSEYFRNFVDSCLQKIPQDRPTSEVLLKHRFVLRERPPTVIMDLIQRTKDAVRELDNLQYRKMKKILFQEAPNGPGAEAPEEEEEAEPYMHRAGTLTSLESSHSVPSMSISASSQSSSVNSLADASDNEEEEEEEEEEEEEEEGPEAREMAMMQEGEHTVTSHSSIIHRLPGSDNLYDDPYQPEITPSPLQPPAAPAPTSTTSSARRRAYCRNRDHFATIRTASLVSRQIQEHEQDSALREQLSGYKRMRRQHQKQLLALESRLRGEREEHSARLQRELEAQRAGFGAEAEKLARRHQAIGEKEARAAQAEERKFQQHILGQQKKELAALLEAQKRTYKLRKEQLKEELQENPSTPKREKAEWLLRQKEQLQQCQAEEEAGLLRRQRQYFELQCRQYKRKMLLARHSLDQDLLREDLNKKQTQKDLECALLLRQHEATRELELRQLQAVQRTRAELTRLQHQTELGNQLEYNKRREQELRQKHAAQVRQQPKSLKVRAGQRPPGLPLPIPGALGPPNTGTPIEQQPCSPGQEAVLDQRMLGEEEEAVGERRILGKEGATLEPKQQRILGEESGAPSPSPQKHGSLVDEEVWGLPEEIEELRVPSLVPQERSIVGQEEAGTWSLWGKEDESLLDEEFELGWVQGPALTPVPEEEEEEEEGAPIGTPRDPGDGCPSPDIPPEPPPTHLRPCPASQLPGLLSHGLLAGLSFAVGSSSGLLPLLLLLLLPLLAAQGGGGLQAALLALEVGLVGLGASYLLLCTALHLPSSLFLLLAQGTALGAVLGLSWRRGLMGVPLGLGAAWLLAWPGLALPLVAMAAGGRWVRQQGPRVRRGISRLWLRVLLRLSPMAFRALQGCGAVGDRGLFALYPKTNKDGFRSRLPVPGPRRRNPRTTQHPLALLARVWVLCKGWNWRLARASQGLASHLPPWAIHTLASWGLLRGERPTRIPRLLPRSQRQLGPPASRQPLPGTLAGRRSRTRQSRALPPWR

[2] = target: Receptor tyrosine-protein kinase erbB-4 (Homo sapiens) (UniProt Q15303); test: Inhibition of human recombinant ErbB4 at 500 nM related to control ULK1
[3] = target: T2, Ephrin type-B receptor 3 (Homo sapiens) (UniProt P54753); test: Inhibition of human recombinant EphB3 at 15 nM in presence of ATP by radiometric assay relative to control
T2 sequence (whole entry): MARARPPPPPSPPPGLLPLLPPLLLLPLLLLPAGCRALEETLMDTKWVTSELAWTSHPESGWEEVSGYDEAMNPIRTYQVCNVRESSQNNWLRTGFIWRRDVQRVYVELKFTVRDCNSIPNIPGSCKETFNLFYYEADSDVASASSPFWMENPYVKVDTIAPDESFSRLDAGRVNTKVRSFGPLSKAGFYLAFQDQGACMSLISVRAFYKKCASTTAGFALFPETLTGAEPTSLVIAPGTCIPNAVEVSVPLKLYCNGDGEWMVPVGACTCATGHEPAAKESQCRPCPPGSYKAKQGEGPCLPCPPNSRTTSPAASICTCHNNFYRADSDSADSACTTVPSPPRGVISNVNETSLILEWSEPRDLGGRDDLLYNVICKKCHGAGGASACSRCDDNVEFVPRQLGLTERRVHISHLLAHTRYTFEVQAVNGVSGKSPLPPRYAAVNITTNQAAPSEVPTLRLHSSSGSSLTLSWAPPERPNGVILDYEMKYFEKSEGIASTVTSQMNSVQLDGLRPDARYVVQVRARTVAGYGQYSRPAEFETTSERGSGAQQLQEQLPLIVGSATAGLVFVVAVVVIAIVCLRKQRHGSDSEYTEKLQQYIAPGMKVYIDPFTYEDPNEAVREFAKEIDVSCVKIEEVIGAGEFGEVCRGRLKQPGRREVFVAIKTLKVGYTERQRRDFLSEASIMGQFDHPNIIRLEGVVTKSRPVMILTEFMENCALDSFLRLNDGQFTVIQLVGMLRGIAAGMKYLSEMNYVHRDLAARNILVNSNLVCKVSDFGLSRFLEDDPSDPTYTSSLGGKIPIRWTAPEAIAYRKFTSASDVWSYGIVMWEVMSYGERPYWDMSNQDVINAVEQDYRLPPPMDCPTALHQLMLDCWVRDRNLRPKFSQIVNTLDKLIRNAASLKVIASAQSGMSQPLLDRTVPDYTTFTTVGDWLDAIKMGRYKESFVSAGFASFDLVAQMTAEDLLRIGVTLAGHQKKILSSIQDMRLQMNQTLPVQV

[4] = species: Homo sapiens; test: Inhibition of human recombinant CK1d at 40 nM in presence of ATP by radiometric assay relative to control
[5] = target: Insulin receptor (Homo sapiens) (UniProt P06213); test: Inhibition of human recombinant INSR at 40 nM related to control ULK1
[6] = target: T3, Tyrosine-protein kinase TXK (Homo sapiens) (UniProt P42681); test: Inhibition of human recombinant TXK at 40 nM related to control ULK1
T3 sequence (whole entry): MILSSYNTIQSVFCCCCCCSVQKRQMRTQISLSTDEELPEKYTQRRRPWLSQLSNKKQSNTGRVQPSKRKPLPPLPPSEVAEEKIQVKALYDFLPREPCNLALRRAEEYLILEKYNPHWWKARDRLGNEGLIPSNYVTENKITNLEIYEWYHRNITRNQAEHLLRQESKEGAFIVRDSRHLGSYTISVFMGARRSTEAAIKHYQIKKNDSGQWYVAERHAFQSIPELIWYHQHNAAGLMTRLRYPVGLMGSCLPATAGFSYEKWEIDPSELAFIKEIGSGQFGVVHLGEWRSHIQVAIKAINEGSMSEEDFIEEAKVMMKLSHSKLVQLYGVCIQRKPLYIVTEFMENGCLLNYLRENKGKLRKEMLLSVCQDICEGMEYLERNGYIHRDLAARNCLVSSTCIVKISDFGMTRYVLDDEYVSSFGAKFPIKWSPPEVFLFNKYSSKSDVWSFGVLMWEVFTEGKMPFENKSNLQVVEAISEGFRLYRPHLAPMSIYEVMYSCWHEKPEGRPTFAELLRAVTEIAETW

Sequence of Receptor tyrosine-protein kinase erbB-4 (Homo sapiens) (Q15303 whole entry): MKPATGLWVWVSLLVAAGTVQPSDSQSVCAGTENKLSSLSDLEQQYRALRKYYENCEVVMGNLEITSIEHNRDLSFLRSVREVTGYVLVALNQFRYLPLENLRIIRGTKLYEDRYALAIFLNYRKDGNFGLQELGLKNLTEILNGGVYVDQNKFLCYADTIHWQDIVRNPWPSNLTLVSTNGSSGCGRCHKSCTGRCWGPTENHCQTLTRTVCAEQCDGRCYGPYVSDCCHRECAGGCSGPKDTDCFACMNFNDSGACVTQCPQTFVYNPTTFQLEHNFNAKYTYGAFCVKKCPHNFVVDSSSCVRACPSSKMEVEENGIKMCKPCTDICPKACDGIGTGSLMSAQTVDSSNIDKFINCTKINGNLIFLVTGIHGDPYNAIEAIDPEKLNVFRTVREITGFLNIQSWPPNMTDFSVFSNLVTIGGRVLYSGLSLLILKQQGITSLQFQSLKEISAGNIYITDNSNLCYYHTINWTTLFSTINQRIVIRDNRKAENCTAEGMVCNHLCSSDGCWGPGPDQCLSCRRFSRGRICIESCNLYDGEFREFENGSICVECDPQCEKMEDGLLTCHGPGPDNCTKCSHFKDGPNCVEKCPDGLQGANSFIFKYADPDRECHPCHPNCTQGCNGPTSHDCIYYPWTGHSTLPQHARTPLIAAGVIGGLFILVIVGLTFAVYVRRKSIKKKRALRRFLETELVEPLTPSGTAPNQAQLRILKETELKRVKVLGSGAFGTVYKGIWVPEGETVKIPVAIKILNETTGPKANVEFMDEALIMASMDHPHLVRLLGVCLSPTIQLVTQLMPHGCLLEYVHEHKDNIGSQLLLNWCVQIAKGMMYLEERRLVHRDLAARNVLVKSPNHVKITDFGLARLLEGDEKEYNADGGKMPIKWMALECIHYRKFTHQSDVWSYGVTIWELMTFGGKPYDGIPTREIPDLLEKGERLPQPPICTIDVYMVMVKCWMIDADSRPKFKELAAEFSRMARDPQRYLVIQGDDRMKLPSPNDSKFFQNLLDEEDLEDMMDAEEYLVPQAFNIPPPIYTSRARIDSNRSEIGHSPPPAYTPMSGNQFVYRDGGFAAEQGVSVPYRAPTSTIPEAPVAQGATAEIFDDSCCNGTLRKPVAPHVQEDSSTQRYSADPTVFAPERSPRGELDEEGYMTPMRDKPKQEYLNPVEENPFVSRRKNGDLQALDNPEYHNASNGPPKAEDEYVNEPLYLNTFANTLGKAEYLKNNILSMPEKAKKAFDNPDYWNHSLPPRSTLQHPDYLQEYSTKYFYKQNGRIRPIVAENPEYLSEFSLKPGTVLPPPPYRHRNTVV
Sequence of Insulin receptor (Homo sapiens) (P06213 28-758 limits assumed): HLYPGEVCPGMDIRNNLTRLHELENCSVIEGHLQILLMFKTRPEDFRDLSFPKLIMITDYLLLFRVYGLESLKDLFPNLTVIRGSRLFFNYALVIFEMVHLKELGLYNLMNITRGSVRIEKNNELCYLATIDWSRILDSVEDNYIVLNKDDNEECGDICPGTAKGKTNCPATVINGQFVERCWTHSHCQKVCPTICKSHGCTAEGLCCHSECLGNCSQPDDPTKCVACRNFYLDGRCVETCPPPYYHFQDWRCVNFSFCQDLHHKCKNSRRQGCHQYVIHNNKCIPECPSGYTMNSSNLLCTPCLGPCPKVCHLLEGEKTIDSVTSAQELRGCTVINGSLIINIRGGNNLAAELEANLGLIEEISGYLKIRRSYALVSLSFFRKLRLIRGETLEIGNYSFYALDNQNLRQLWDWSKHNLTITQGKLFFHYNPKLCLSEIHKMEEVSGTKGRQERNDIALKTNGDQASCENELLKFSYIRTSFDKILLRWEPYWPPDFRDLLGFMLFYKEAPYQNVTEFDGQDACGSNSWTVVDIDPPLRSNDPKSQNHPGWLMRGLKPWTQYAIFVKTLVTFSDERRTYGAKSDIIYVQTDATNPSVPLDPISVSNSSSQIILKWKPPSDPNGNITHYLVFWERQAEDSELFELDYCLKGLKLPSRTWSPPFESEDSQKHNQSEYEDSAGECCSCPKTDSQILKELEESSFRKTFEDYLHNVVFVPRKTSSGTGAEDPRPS
Sequence of Insulin receptor (Homo sapiens) (P06213 763-1382 limits assumed): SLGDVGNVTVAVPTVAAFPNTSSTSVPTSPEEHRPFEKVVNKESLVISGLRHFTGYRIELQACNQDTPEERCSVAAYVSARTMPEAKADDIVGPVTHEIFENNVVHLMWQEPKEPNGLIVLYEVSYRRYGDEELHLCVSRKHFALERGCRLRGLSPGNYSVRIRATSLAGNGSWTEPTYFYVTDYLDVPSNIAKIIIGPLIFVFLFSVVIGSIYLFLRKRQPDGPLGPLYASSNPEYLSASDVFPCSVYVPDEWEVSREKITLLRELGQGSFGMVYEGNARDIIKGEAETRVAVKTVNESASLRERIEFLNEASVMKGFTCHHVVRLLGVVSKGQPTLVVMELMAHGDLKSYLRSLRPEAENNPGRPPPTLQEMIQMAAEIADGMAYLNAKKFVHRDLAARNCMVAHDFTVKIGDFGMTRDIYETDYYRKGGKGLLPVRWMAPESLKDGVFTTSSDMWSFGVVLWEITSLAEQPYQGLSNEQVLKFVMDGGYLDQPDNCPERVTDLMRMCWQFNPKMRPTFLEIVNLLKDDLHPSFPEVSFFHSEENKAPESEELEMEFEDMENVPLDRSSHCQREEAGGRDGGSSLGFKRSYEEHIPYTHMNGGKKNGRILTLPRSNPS

- inhibition [1]: 0%
- fold change (FC) [2]: 0
SMILES: CNC(=O)c1ccccc1Oc1nc(Nc2cc(OC)c(OC)c(OC)c2)ncc1Br

- inhibition [3]: 0%
SMILES: CC(C)[C@H](NC(=O)c1cc(-c2cnn3cc(-c4ccc(OCCN5CCCCC5)cc4)cnc23)cs1)C(F)(F)F

- inhibition [4]: 3%
- fold change (FC) [5]: 0
- fold change (FC) [6]: 0.18
SMILES: O=C(N[C@@H](C1CC1)C(F)(F)F)c1cc(-c2cnn3cc(-c4ccc(F)cc4)cnc23)cs1
